The subject of one assay is CCL2/MCP-1. In words: Example 8 main study Luminex, LPS hPBMCs: CCL2/MCP-1. The assay is classed as cell-based, human. The settings on record: for CCL2/MCP-1 Concentration: single replicates; for LPS-induced CCL-2 (in words): at as low as 5 μM, LPS 5 ug/mL 24 hrs. How it is done: (§1) Human PBMCs were pretreated with YY-101, YDE-011, YDE-043 or reference compound; Xiidra® at various concentration (ranging from […] to 500 nM) for 2 h before stimulation. An equal volume of 0.5% DMSO was used as a vehicle control. Then, the cells were treated with LPS at 5 ug/ml, which was selected based on the pilot study. The supernatants from treated cells were harvested at 24 h and placed in a 96 well for Luminex cytokine & chemokine profiling using a Luminex 200 multiplex assay (Luminex; R&D system, USA).
(§2) The main study arm with triplicate wells per group in a 24-well plate: • 1. Blank • 2. PBMC: 0.5% DMSO • 3. PBMC+LPS (5 ug/ml) • 4. PBMC+YY-101 500 nM • 5. PBMC+YY-101 50 nM • 6. PBMC+YY-101 5 nM • 7. PBMC+YY-101 0.5 nM • 8. PBMC+LPS (5 ug/ml)+Xiidra® 500 nM • 9. PBMC+LPS (5 ug/ml)+Xiidra® 50 nM • 10. PBMC+LPS (5 ug/ml)+Xiidra® 5 nM • 11. PBMC+LPS (5 ug/ml)+Xiidra® 0.5 nM • 12. PBMC+LPS (5 ug/ml)+Xiidra® 0.05 nM • 13. PBMC+LPS (5 ug/ml)+Xiidra® 0.005 nM • 14. PBMC+LPS (5 ug/ml)+YY-101 500 nM • 15. PBMC+LPS (5 ug/ml)+YY-101 50 nM • 16. PBMC+LPS (5 ug/ml)+YY-101 5 nM • 17. PBMC+LPS (5 ug/ml)+YY-101 0.5 nM • 18. PBMC+LPS (5 ug/ml)+YY-101 0.05 nM • 19. PBMC+LPS (5 ug/ml)+YY-101 0.005 nM • 20. PBMC+LPS (5 ug/ml)+YDE-011 500 nM • 21. PBMC+LPS (5 ug/ml)+YDE-011 50 nM • 22. PBMC+LPS (5 ug/ml)+YDE-011 5 nM • 23. PBMC+LPS (5 ug/ml)+YDE-011 0.5 nM • 24. PBMC+LPS (5 ug/ml)+YDE-011 0.05 nM • 25. PBMC+LPS (5 ug/ml)+YDE-011 0.005 nM • 26. PBMC+LPS (5 ug/ml)+YDE-043 500 nM • 27. PBMC+LPS (5 ug/ml)+YDE-043 50 nM • 28. PBMC+LPS (5 ug/ml)+YDE-043 5 nM • 29. PBMC+LPS (5 ug/ml)+YDE-043 0.5 nM • 30. PBMC+LPS (5 ug/ml)+YDE-043 0.05 nM • 31. PBMC+LPS (5 ug/ml)+YDE-043 0.005 nM
(§3) Multiplex assay was used to measure 30 cytokines and chemokines. The 1:200 diluted cell supernatant and serial dilution of the standard were dispensed into a 96 well plate at 50 ul/well. Then, the pre-mixed cocktail of antibody-coated magnetic beads was dispensed at 50 ul/well and incubated at room temperature for 2 h in a horizontal orbital microplate shaker at 800±500 rpm. The beads were washed using a magnetic device to prevent loss. The biotin-antibody was dispensed in 50 ul of each well and incubated at room temperature for 1 h in a shaker at 800±500 rpm. After washing, streptavidin-PE was added at 50 ul/well and incubated at room temperature for 30 min in a shaker under the same conditions. Finally, after washing, wash buffer (100 ul/well) was added to the plate and incubated in a shaker for 2 min. The Luminex™ 200 setting were set according to the manufacturer's protocol. The data was calculated with a standard five-parameter logistic nonlinear regression analysis of the data (xPonent software 4.2, USA). Results were presented as concentration (ng/ml or pg/ml).

For assay [1], the system named is cytokine and chemokine release in human peripheral blood mononuclear cells (hPBMCs). As to the kind of experiment: Luminex multiplex, 30 cytokines and chemokines, LPS stimulated hPBMCs, main study (Example 8, Study 1), whole panel. The following applies: for LPS-induced cytokine/chemokine levels, whole panel (in words): LPS 5 ug/mL 24 hrs, up to 500 nM. The assay is classed as cell-based. How it is done:
Human PBMCs frozen in a cryopreserve was thawed, washed with Hank's Balanced Salt Solution containing 10% Fetal bovine serum, and seeded onto a 24-well plate at a density of 1×10^6 cells/well with culture RPMI media containing 10% Fetal bovine serum in growth media in a 24 well plate for 12, 24, and 48 hrs and maintained at 37° C. in an atmosphere of 95% air and 5% CO2.
as §1, §2
as §3, with “After washing, streptavidin-PE was added at 50 ul/well and incubated at room temperature for 30 min in a shaker under the same conditions. Finally, after washing, wash buffer (100 ul/well) was added to the plate and incubated in a shaker for 2 min. The Luminex™ 200 setting were set according to the manufacturer's protocol.” left out, “Results were presented as concentration (ng/ml or pg/ml).” left out

[2] abbreviates: PBMC + LPS(5 ug/ml) + YDE011 0.005 nM.
The mark [3] stands for this setting: PBMC + LPS(5 ug/ml) + YDE011 0.05 nM.
Setting [4] is: PBMC + LPS(5 ug/ml) + YDE011 0.5 nM.
The mark [5] stands for this setting: PBMC + LPS(5 ug/ml) + YDE011 5 nM.
The mark [6] stands for this setting: PBMC + LPS(5 ug/ml) + YDE011 50 nM.
The mark [7] stands for this setting: PBMC + LPS(5 ug/ml) + YDE011 500 nM.
Setting [8] is: PBMC + LPS(5 ug/ml) + YY101 0.005 nM.
[9] abbreviates: PBMC + LPS(5 ug/ml) + YY101 0.05 nM.
Where [10] appears, read: PBMC + LPS(5 ug/ml) + YY101 0.5 nM.
Setting [11] is: PBMC + LPS(5 ug/ml) + YY101 5 nM.
The mark [12] stands for this setting: PBMC + LPS(5 ug/ml) + YY101 50 nM.
[13] abbreviates: PBMC + LPS(5 ug/ml) + YY101 500 nM.

Structures are written as SMILES. Values joined by “and” are separate entries in the source; they are usually repeats but may differ in a detail not shown here. Identical values can stand only once. Where a SMILES comes first, the peptide text is derived from it. [ ]: non-standard residue; d: D form. Hyp = O=C(O)[C@@H]1C[C@@H](O)CN1

On to `CC(C)C[C@H](NC(=O)CNC(=O)[C@H](CC(C)C)NC(=O)[C@H](CCC(N)=O)NC(=O)CNC(=O)[C@@H]1C[C@@H](O)CN1)C(=O)N[C@@H](C)C(=O)NCC(=O)N1CCC[C@H]1C(=O)N[C@@H](CCCCN)C(=O)O` [YDE-011] (H-[Hyp]GQLGLAGPK-OH), for which the “CCL2/MCP-1 Concentration, Mean” value with CCL2/MCP-1 (setting [2]) turned out to be 4425.2 pg/mL; in the assay on CCL2/MCP-1 (setting [3]), 4442.7 pg/mL; with CCL2/MCP-1 (setting [4]), 4303.7 pg/mL; in the assay on CCL2/MCP-1 (setting [5]) it was 4178.7 pg/mL; in the assay with CCL2/MCP-1 (setting [6]), 4173.5 pg/mL; in the assay with CCL2/MCP-1 (setting [7]), 4170.5 pg/mL. For the same compound, the “CCL2/MCP-1 Concentration” value is 4425.5 pg/mL and 4528.4 pg/mL and 4321.5 pg/mL with CCL2/MCP-1 (setting [2]); 4425.5 pg/ml (2×) and 4477.1 pg/ml in the assay on CCL2/MCP-1 (setting [3]); 4425.5 pg/mL and 4269.1 pg/mL and 4216.3 pg/mL in the assay on CCL2/MCP-1 (setting [4]); 3893.1 pg/ml and 4321.5 pg/ml (2×) in the assay with CCL2/MCP-1 (setting [5]); 4528.4 pg/mL and 3670.6 pg/mL and 4321.5 pg/mL with CCL2/MCP-1 (setting [6]); 4731.0 pg/mL and 3670.6 pg/mL and 4109.9 pg/mL in the assay with CCL2/MCP-1 (setting [7]). Further, the “LPS-induced CCL-2 (in words)” value with CCL2/MCP-1 is “significantly reduced”. In assay [1], the “LPS-induced cytokine/chemokine levels, whole panel (in words)” value is “potently and significantly reduced pro-inflammatory cytokine/chemokine production”.

For the compound `CC(C)C[C@H](NC(=O)CNC(=O)[C@H](CC(=O)O)NC(=O)[C@H](CCC(N)=O)NC(=O)CNC(=O)[C@@H]1C[C@@H](O)CN1)C(=O)N[C@@H](C)C(=O)NCC(=O)N1CCC[C@H]1C(=O)N[C@@H](CCCCN)C(=O)O` [YY-101] (H-[Hyp]GQDGLAGPK-OH; N-terminus and C-terminus assumed), the “CCL2/MCP-1 Concentration, Mean” value in the assay on CCL2/MCP-1 (setting [8]) came out at 4528.1 pg/mL; in the assay with CCL2/MCP-1 (setting [9]) it was 4596.0 pg/mL; in the assay with CCL2/MCP-1 (setting [10]), 4596.3 pg/mL; in the assay with CCL2/MCP-1 (setting [11]) it was 4629.9 pg/mL; with CCL2/MCP-1 (setting [12]), 4613.3 pg/mL; with CCL2/MCP-1 (setting [13]) it was 4459.8 pg/mL. For the same compound, the “CCL2/MCP-1 Concentration, Mean” value in the assay on CCL2/MCP-1 (PBMC + YY101 0.5 nM, no LPS) is 4679.6 pg/mL; in the assay on CCL2/MCP-1 (PBMC + YY101 5 nM, no LPS) it was 4425.5 pg/mL; in the assay with CCL2/MCP-1 (PBMC + YY101 0.05 uM, no LPS) it was 5025.5 pg/mL; with CCL2/MCP-1 (PBMC + YY101 50 nM, no LPS), 4373.5 pg/mL; in the assay with CCL2/MCP-1 (PBMC + YY101 500 nM, no LPS) it was 4475.9 pg/mL. Further, the “CCL2/MCP-1 Concentration” value with CCL2/MCP-1 (setting [8]) is 4528.4 pg/mL and 4630.2 pg/mL and 4425.5 pg/mL; in the assay with CCL2/MCP-1 (setting [9]) it was 4528.4 pg/ml (2×) and 4731.0 pg/ml; in the assay with CCL2/MCP-1 (setting [10]), 4630.2 pg/ml (2×) and 4528.4 pg/ml; with CCL2/MCP-1 (setting [11]) it was 4630.2 pg/mL and 4528.4 pg/mL and 4731.0 pg/mL; with CCL2/MCP-1 (setting [12]), 4579.5 pg/ml and 4630.2 pg/ml (2×); in the assay on CCL2/MCP-1 (setting [13]), 4425.5 pg/ml (2×) and 4528.4 pg/ml. Further, the “CCL2/MCP-1 Concentration” value with CCL2/MCP-1 (PBMC + YY101 0.5 nM, no LPS) is 4528.4 pg/mL and 4830.8 pg/mL; in the assay on CCL2/MCP-1 (PBMC + YY101 5 nM, no LPS), 4425.5 pg/mL; with CCL2/MCP-1 (PBMC + YY101 0.05 uM, no LPS), 5782.0 pg/mL and 4269.1 pg/mL; in the assay with CCL2/MCP-1 (PBMC + YY101 50 nM, no LPS), 4321.5 pg/mL and 4425.5 pg/mL; with CCL2/MCP-1 (PBMC + YY101 500 nM, no LPS), 4321.5 pg/mL and 4630.2 pg/mL. For the same compound, the “LPS-induced CCL-2 (in words)” value in the assay on CCL2/MCP-1 is on record as “significantly reduced”. Also, in assay [1], the “LPS-induced cytokine/chemokine levels, whole panel (in words)” value is “potently and significantly reduced pro-inflammatory cytokine/chemokine production”. Further, the “basal levels of cytokine production (in words)” value in assay [1] (no LPS) is “didn't affect the basal levels of cytokine production”.

Values taken from patent US20230146455A1, “TREATMENT OF INFLAMMATORY DISEASES WITH PEPTIDES AND PHARMACEUTICAL COMPOSITIONS” (Yuyu Pharma, Inc., priority 2020, published 2023).
